Source: patent publication US8288419B2, “Aminopyrazole derivatives” (Actelion Pharmaceuticals, Ltd, priority 2007, dated 2012)

The compounds below were run against T1, recombinant human ALX receptor (Homo sapiens, UniProt P25090) (assay: Intracellular calcium measurements (FLIPR), ALX receptor agonistic activity). Settings: HEK293-hALXR-Gα16 cells, Fluo-4 calcium fluorescence, normalized to 10 nM WKYMVm.
T1 construct: expressed in transfected cells; host or cells: HEK293 (HEK293-hALXR-Gα16)
T1 sequence (P25090 1-351): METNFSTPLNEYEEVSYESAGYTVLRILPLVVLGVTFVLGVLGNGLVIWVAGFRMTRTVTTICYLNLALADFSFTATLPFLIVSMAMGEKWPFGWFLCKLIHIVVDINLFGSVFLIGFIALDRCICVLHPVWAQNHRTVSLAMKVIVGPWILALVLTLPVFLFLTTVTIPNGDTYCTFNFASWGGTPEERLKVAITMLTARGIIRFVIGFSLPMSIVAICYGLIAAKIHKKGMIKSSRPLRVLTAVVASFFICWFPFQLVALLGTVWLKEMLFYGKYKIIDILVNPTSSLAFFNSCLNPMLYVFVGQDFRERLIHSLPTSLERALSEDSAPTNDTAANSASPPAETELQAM
Assay type: cell-based
Description: The ALX receptor agonistic activity of the compounds of formula (I) is determined in accordance with the following experimental method.
Intracellular Calcium Measurements:
Cells expressing recombinant human ALX receptor and the G-protein Gα16 (HEK293-hALXR-Gα16) were grown to 80% confluency in Growing Medium (GM). […] Stock solutions of test compounds were made up at a concentration of 10 mM in DMSO, and serially diluted in AB to concentrations required for activation dose response curves. WKYMVm (Phoenix Peptides) was used as a reference agonist. A FLIPR384 instrument (Molecular Devices) was operated according to the manufacturer's standard instructions, adding 4 μl of test compound dissolved at 10 mM in DMSO and diluted prior to the experiment in assay buffer to obtain the desired final concentration. Changes in fluorescence were monitored before and after the addition of test compounds at lex=488 nm and lem=540 nm. Emission peak values above base level after compounds addition were exported after base line subtraction. Values were normalized to high-level control (WKYMVm compound, 10 nM final concentration) after subtraction of the base line value (AB addition). The program XLlfit 3.0 (IDBS) was used to fit the data to a single site dose response curve of the equation (A+((B−A)/(1+((C/x)^D)))) and to calculate the EC50 values.

Row | SMILES | EC50
1 | CC(=O)c1ccc(Cn2cc(NC(=O)c3ncoc3-c3ccc(C)cc3)cn2)o1 [Example 331, 5-p-Tolyl-oxazole-4-carboxylic acid [1-(5-acetyl-furan-2-ylmethyl)-1H-pyrazol-4-yl]-amide] | 85 nM
2 | CC(=O)c1cc(Cn2cc(NC(=O)c3ncoc3-c3ccccc3)cn2)cs1 [Example 408, 5-Phenyl-oxazole-4-carboxylic acid [1-(5-acetyl-thiophen-3-ylmethyl)-1H-pyrazol-4-yl]-amide] | 83 nM
3 | CC(=O)CCCCn1cc(NC(=O)c2ncoc2-c2ccccc2)cn1 [Example 152, 5-Phenyl-oxazole-4-carboxylic acid [1-(5-oxo-hexyl)-1H-pyrazol-4-yl]-amide] | 191 nM
4 | CC(=O)c1ccc(Cn2ccc(NC(=O)c3nc(CN)oc3-c3ccccc3)n2)o1 [Example 390, 2-Aminomethyl-5-phenyl-oxazole-4-carboxylic acid [1-(5-acetyl-furan-2-ylmethyl)-1H-pyrazol-3-yl]-amide] | 727 nM
5 | CC(=O)CCCCn1ccc(NC(=O)c2ncoc2-c2ccccc2)n1 [Example 179, 5-Phenyl-oxazole-4-carboxylic acid [1-(5-oxo-hexyl)-1H-pyrazol-3-yl]-amide] | 955 nM
6 | CC(=O)CCCCn1ccc(NC(=O)OCc2ccc(F)c(F)c2)n1 [Example 169, [1-(5-Oxo-hexyl)-1H-pyrazol-3-yl]-carbamic acid 3,4-difluoro-benzyl ester] | 363 nM
7 | CC(=O)c1ccc(Cn2cc(NC(=O)c3ncoc3-c3ccno3)cn2)o1 [Example 420, 5-Isoxazol-5-yl-oxazole-4-carboxylic acid [1-(5-acetyl-furan-2-ylmethyl)-1H-pyrazol-4-yl]-amide] | 388 nM
8 | CC(=O)c1ccc(Cn2cc(NC(=O)c3nc(C)sc3-c3cccc(C)c3)cn2)s1 [Example 395, 2-Methyl-5-m-tolyl-thiazole-4-carboxylic acid [1-(5-acetyl-thiophen-2-ylmethyl)-1H-pyrazol-4-yl]-amide] | 170 nM
9 | CC(=O)c1ccc(Cn2cc(NC(=O)c3ncoc3-c3ccnc(F)c3)cn2)o1 [Example 412, 5-(2-Fluoro-pyridin-4-yl)-oxazole-4-carboxylic acid [1-(5-acetyl-furan-2-ylmethyl)-1H-pyrazol-4-yl]-amide] | 179 nM
10 | CC(=O)c1csc(Cn2cc(NC(=O)OCc3ccccc3Cl)cn2)c1 [Example 442, [1-(4-Acetyl-thiophen-2-ylmethyl)-1H-pyrazol-4-yl]-carbamic acid 2-chloro-benzyl ester] | 94 nM
11 | CC(=O)c1ncc(Cn2cc(NC(=O)c3ncoc3-c3ccccc3)cn2)s1 [Example 437, 5-Phenyl-oxazole-4-carboxylic acid [1-(2-acetyl-thiazol-5-ylmethyl)-1H-pyrazol-4-yl]-amide] | 99 nM
12 | CC(=O)c1ccc(Cn2ccc(NC(=O)/C=C/c3cccc(C(F)(F)F)c3F)n2)o1 [Example 45, (E)-N-[1-(5-Acetyl-furan-2-ylmethyl)-1H-pyrazol-3-yl]-3-(2-fluoro-3-trifluoromethyl-phenyl)-acrylamide] | 95 nM
13 | CC(=O)c1cnc(Cn2cc(NC(=O)c3ncoc3-c3ccccc3)cn2)s1 [Example 435, 5-Phenyl-oxazole-4-carboxylic acid [1-(5-acetyl-thiazol-2-ylmethyl)-1H-pyrazol-4-yl]-amide] | 445 nM
14 | CC(F)(F)CCCCn1ccc(NC(=O)OCc2ccccc2Cl)n1 [Example 201, [1-(5,5-Difluoro-hexyl)-1H-pyrazol-3-yl]-carbamic acid 2-chloro-benzyl ester] | 154 nM
15 | CC(F)(F)CCCCn1cc(NC(=O)c2ncoc2-c2ccccc2)cn1 [Example 204, 5-Phenyl-oxazole-4-carboxylic acid [1-(5,5-difluoro-hexyl)-1H-pyrazol-4-yl]-amide] | 195 nM
16 | CC(=O)c1ccc(Cn2cc(NC(=O)c3nc(Cc4ccccc4)oc3-c3ccccc3)cn2)o1 [Example 432, 2-Benzyl-5-phenyl-oxazole-4-carboxylic acid [1-(5-acetyl-furan-2-ylmethyl)-1H-pyrazol-4-yl]-amide] | 200 nM

Now those with a lower EC50, led by results:

Row | EC50 | SMILES
17 | 79 nM | CC(=O)c1csc(Cn2cc(NC(=O)/C=C/c3ccc(C(F)(F)F)cc3)cn2)n1 [Example 389, (E)-N-[1-(4-Acetyl-thiazol-2-ylmethyl)-1H-pyrazol-4-yl]-3-(4-trifluoromethyl-phenyl)-acrylamide]
18 | 74 nM | CC(=O)c1ccc(Cn2ccc(NC(=O)c3ncoc3-c3ccccc3)n2)s1 [Example 376, 5-Phenyl-oxazole-4-carboxylic acid [1-(5-acetyl-thiophen-2-ylmethyl)-1H-pyrazol-3-yl]-amide]
19 | 69 nM | CC(=O)CCCCn1cc(NC(=O)OC(C)c2ccccc2)cn1 (racemic) [Example 125, [1-(5-Oxo-hexyl)-1H-pyrazol-4-yl]-carbamic acid (RS)-1-phenyl-ethyl ester]
20 | 66 nM | CC(=O)c1ccc(Cn2cc(NC(=O)c3ncoc3-c3cccc(C(F)(F)F)n3)cn2)o1 [Example 419, 5-(6-Trifluoromethyl-pyridin-2-yl)-oxazole-4-carboxylic acid [1-(5-acetyl-furan-2-ylmethyl)-1H-pyrazol-4-yl]-amide]
21 | 49 nM | CC(=O)c1ccc(Cn2cc(NC(=O)c3nc(C4CC4)oc3-c3ccccc3)cn2)s1 [Example 401, 2-Cyclopropyl-5-phenyl-oxazole-4-carboxylic acid [1-(5-acetyl-thiophen-2-ylmethyl)-1H-pyrazol-4-yl]-amide]
22 | 46 nM | CC(F)(F)c1ccc(Cn2cc(NC(=O)c3ncoc3-c3ccccc3)cn2)o1 [Example 200, 5-Phenyl-oxazole-4-carboxylic acid {1-[5-(1,1-difluoro-ethyl)-furan-2-ylmethyl]-1H-pyrazol-4-yl}-amide]
23 | 35 nM | CC(=O)c1ccc(Cn2ccc(NC(=O)c3ncoc3-c3cccc(C(=O)OC(C)(C)C)c3)n2)o1 [Example 381, 3-{4-[1-(5-Acetyl-furan-2-ylmethyl)-1H-pyrazol-3-ylcarbamoyl]-oxazol-5-yl}-benzoic acid tert-butyl ester]
24 | 29 nM | CC(F)(F)c1ccc(Cn2ccc(NC(=O)OCc3ccccc3Cl)n2)o1 [Example 197, {1-[5-(1,1-Difluoro-ethyl)-furan-2-ylmethyl]-1H-pyrazol-3-yl}-carbamic acid 2-chloro-benzyl ester]
25 | 29 nM | CC(=O)c1ccc(Cn2ccc(NC(=O)c3ncoc3-c3cccc(-c4ccccc4)c3)n2)o1 [Example 356, 5-Biphenyl-3-yl-oxazole-4-carboxylic acid [1-(5-acetyl-furan-2-ylmethyl)-1H-pyrazol-3-yl]-amide]
26 | 28 nM | CC(F)(F)CCCCn1cc(NC(=O)OCc2ccccc2Cl)cn1 [Example 203, [1-(5,5-Difluoro-hexyl)-1H-pyrazol-4-yl]-carbamic acid 2-chloro-benzyl ester]
27 | 27 nM | CC(F)(F)c1ccc(Cn2ccc(NC(=O)OCc3cccc(C(F)(F)F)c3)n2)o1 [Example 280, {1-[5-(1,1-Difluoro-ethyl)-furan-2-ylmethyl]-1H-pyrazol-3-yl}-carbamic acid 3-trifluoromethyl-benzyl ester]
28 | 25 nM | Cc1ccc(F)c(COC(=O)Nc2ccn(CCCCC(C)(F)F)n2)c1F [Example 282, [1-(5,5-Difluoro-hexyl)-1H-pyrazol-3-yl]-carbamic acid 2,6-difluoro-3-methyl-benzyl ester]
